Ends that are not written are not given here.
Tested on: rat spontaneous urination
Test: Rat spontaneous urination test (metabolism cage, 7 days ingestion from drinking)
Assay type: in vivo
Conditions: aqueous 0.1 mg/mL LNDP solution from drinking for 7 days
Experimental: It was confirmed from Test Example 2 that LNDP promotes the efferent hypogastric nerve activity, and it was confirmed from Test Example 3 that LNDP inhibits the efferent the pelvic splanchnic nerve activity. Influence on the bladder, which is one of the internal organs dominated by these nerves, was therefore investigated.
Male Wistar rats which are 13 weeks old were received, and quarantined and acclimated in a thermostat animal room at 18 to 28° C. in a cycle including a 12-hour light period and a 12-hour dark period for 1 week, and ten 14- to 16-week-old rats per group were tested. An aqueous 0.1 mg/mL LNDP solution or water was ingested from drinking for 7 days, and the urination amount was measured as weight with an electronic balance installed under a urine-collecting opening in raising with a metabolism cage. The weight data of the electronic balance every minute were automatically inputted into a computer. […] The total urination amount and the frequency of urination per day were found, and the urine amount per one time of urination (=the total urination amount per day/the frequency of urination per day) was calculated as to an individual of each group. […] As to the comparison of the test substance and ingestion days with respect to each measured value, two-way analysis of variance (two-way ANOVA) with replication was performed.

significant difference in general symptoms vs water ingestion group: not observed
Sequence: NIPPLTQTPVVVPPFLQPE [LNDP, Asn-Ile-Pro-Pro-Leu-Thr-Gln-Thr-Pro-Val-Val-Val-Pro-Pro-Phe-Leu-Gln-Pro-Glu]
significant difference in change in body weight vs water ingestion group: not observed

— patent US20210401928A1, “ANTI-OBESITY AGENT, POLLAKIURIA IMPROVING AGENT, AND AUTONOMIC NERVOUS ACTIVITY REGULATOR” (ASAHI GROUP HOLDINGS, LTD., priority 2018, published 2021)
